Several values for one entry are separate records, joined by “and”; a condition that tells them apart may be missing. Identical values can stand only once. Toxic doses and inconclusive results are not listed. Rule for the calls: active = survival T/C of 150% or more; inactive = T/C below 125% in these data.
System: P388 leukemia ip, CD2F1 mice, survival T/C
Assay: NCI In Vivo Anticancer Drug Screen. Data for tumor model P388 Leukemia (intraperitoneal) in CD2F1 (CDF1) mice
Conditions: endpoint: median survival time, higher = longer survival
In short: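 Mice carrying the transplanted tumor received test compound or vehicle. Survival was recorded in each group, and the value is the treated-group measurement divided by that of the vehicle-treated control group.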

[1] = dose: 50.0 mg/kg/injection, schedule: Q01DX005 (ip), vehicle: saline with Tween-80
[2] = dose: 100.0 mg/kg/injection, schedule: Q01DX005 (ip), vehicle: saline with Tween-80
[3] = dose: 100.0 mg/kg/injection, schedule: Q01DX001 (ip), vehicle: saline with Tween-80
[4] = dose: 50.0 mg/kg/injection, schedule: Q01DX009 (ip), vehicle: saline
[5] = dose: 100.0 mg/kg/injection, schedule: Q01DX009 (ip), vehicle: saline
[6] = dose: 200.0 mg/kg/injection, schedule: Q01DX009 (ip), vehicle: saline
[7] = dose: 60.0 mg/kg/injection, schedule: Q01DX005 (ip), vehicle: saline with Tween-80
[8] = dose: 120.0 mg/kg/injection, schedule: Q01DX005 (ip), vehicle: saline with Tween-80
[9] = dose: 240.0 mg/kg/injection, schedule: Q01DX005 (ip), vehicle: saline with Tween-80
[10] = dose: 50.0 mg/kg/injection, schedule: Q01DX009 (ip), vehicle: saline with Tween-80
[11] = dose: 100.0 mg/kg/injection, schedule: Q01DX009 (ip), vehicle: saline with Tween-80
[12] = dose: 60.0 mg/kg/injection, schedule: Q01DX005 (ip), vehicle: Klucel (hydroxypropylcellulose) (HPC)
[13] = dose: 120.0 mg/kg/injection, schedule: Q01DX005 (ip), vehicle: Klucel (hydroxypropylcellulose) (HPC)

Measured: T/C

COC(=O)C1(C(=O)OC)ON1C(C)C (centres undefined)
inactive: dose: 60.0 mg/kg/injection, schedule: Q01DX005 (ip), vehicle: saline 98 % of control | dose: 120.0 mg/kg/injection, schedule: Q01DX005 (ip), vehicle: saline 94 % of control | dose: 240.0 mg/kg/injection, schedule: Q01DX005 (ip), vehicle: saline 116 % of control

c1cnc2c(OCCOCCOCCOCCOc3cccc4cccnc34)cccc2c1
inactive: [1] 90 % of control | [2] 90 % of control | dose: 200.0 mg/kg/injection, schedule: Q01DX005 (ip), vehicle: saline with Tween-80 98 % of control

c1ccc(C2OCCN2c2ccccc2)cc1 (centres undefined)
inactive: dose: 12.5 mg/kg/injection, schedule: Q01DX001 (ip), vehicle: saline with Tween-80 107 % of control | dose: 25.0 mg/kg/injection, schedule: Q01DX001 (ip), vehicle: saline with Tween-80 107 % of control | dose: 50.0 mg/kg/injection, schedule: Q01DX001 (ip), vehicle: saline with Tween-80 107 % of control | [3] 101 % of control

O=S1(=O)CCN(Cc2cccnc2)CC1
inactive: [4] 94 % of control | [5] 98 % of control | [6] 91 % of control

CCOc1ccc(-n2c(C)c(COC(=O)NC)c(COC(=O)NC)c2C)cc1
inactive: dose: 50.0 mg/kg/injection, schedule: Q01DX009 (ip), vehicle: Klucel (hydroxypropylcellulose) (HPC) 109 % of control
active: dose: 12.5 mg/kg/injection, schedule: Q01DX009 (ip), vehicle: Klucel (hydroxypropylcellulose) (HPC) 152 % of control and 166 % of control | dose: 25.0 mg/kg/injection, schedule: Q01DX009 (ip), vehicle: Klucel (hydroxypropylcellulose) (HPC) 150 % of control

C/C=C(/C)C(=O)O[C@H]1CC[C@@]2(C)[C@@H]3CC[C@H]4[C@]5(O)C[C@H](O)[C@@]6(O)[C@@H](CN7C[C@@H](C)CC[C@H]7[C@@]6(C)O)[C@]5(O)C[C@@]42O[C@@]13O
inactive: dose: 0.39 mg/kg/injection, schedule: Q01DX009 (ip), vehicle: saline with Tween-80 97 % of control | dose: 0.5 mg/kg/injection, schedule: Q01DX009 (ip), vehicle: saline 95 % of control | dose: 0.78 mg/kg/injection, schedule: Q01DX009 (ip), vehicle: saline with Tween-80 101 % of control | dose: 1.0 mg/kg/injection, schedule: Q01DX009 (ip), vehicle: saline 109 % of control | dose: 1.56 mg/kg/injection, schedule: Q01DX009 (ip), vehicle: saline with Tween-80 101 % of control | dose: 2.0 mg/kg/injection, schedule: Q01DX009 (ip), vehicle: saline 109 % of control | dose: 3.12 mg/kg/injection, schedule: Q01DX009 (ip), vehicle: saline with Tween-80 97 % of control | dose: 6.25 mg/kg/injection, schedule: Q01DX009 (ip), vehicle: saline with Tween-80 88 % of control

O=C(/C=C/C(=O)Nc1ccc(F)cc1F)Nc1ccc(F)cc1F
inactive: [7] 94 % of control and 95 % of control | [8] 98 % of control | [9] 104 % of control and 97 % of control

COc1ccccc1CN1CC(C)N(N=Cc2c3c(O)c4c(O)c(C)c5c(c4c2O)C(=O)C(C)(O/C=C/C(OC)C(C)C(OC(C)=O)C(C)C(O)C(C)C(O)C(C)/C=C/C=C(\C)C(=O)N3)O5)C(C)C1 (centres undefined)
inactive: [10] 102 % of control | [11] 107 % of control | dose: 200.0 mg/kg/injection, schedule: Q01DX009 (ip), vehicle: saline with Tween-80 117 % of control

CC(C)=CCc1c(O)ccc(C(=O)[C@H]2C(c3ccc(O)cc3O)CC(C)=C[C@@H]2c2c(O)cc(O)c3c(=O)c(CC=C(C)C)c(-c4ccc(O)cc4O)oc23)c1O (some centres undefined)
inactive: dose: 7.5 mg/kg/injection, schedule: Q01DX005 (ip), vehicle: Klucel (hydroxypropylcellulose) (HPC) 92 % of control | dose: 15.0 mg/kg/injection, schedule: Q01DX005 (ip), vehicle: Klucel (hydroxypropylcellulose) (HPC) 97 % of control | dose: 30.0 mg/kg/injection, schedule: Q01DX005 (ip), vehicle: Klucel (hydroxypropylcellulose) (HPC) 93 % of control | [12] 108 % of control | [13] 92 % of control

O=C1c2ccccc2-c2c1c1ccccc1c(=O)n2Cc1ccco1
inactive: dose: 0.75 mg/kg/injection, schedule: Q01DX005 (ip), vehicle: saline with Tween-80 100 % of control | dose: 1.5 mg/kg/injection, schedule: Q01DX005 (ip), vehicle: saline with Tween-80 100 % of control | dose: 3.0 mg/kg/injection, schedule: Q01DX005 (ip), vehicle: saline with Tween-80 103 % of control

CCOC(=O)C(Cc1ccc(O)c(C=O)c1)NC(C)=O (centres undefined)
inactive: [12] 96 % of control | [13] 97 % of control | dose: 240.0 mg/kg/injection, schedule: Q01DX005 (ip), vehicle: Klucel (hydroxypropylcellulose) (HPC) 98 % of control

C1CCC2CC3NC3CC2C1 (centres undefined)
inactive: [4] 101 % of control | [5] 105 % of control | [6] 101 % of control

CC(CN(C)C)C(=O)/C=C/c1ccc(Cl)c(Cl)c1 (centres undefined)
inactive: dose: 15.0 mg/kg/injection, schedule: Q01DX005 (ip), vehicle: saline with Tween-80 122 % of control | dose: 30.0 mg/kg/injection, schedule: Q01DX005 (ip), vehicle: saline with Tween-80 116 % of control | [7] 111 % of control and 117 % of control

CN(C)CSCN(C)C
inactive: dose: 25.0 mg/kg/injection, schedule: Q01DX009 (ip), vehicle: saline with Tween-80 103 % of control and 93 % of control | [10] 100 % of control and 113 % of control | [11] 102 % of control and 123 % of control

O=C(Nc1ccc(OCc2ccccc2)cc1)c1cc2c(cc1Br)OCO2
inactive: dose: 25.0 mg/kg/injection, schedule: Q01DX009 (ip), vehicle: other 106 % of control | dose: 50.0 mg/kg/injection, schedule: Q01DX009 (ip), vehicle: other 104 % of control | dose: 100.0 mg/kg/injection, schedule: Q01DX009 (ip), vehicle: other 106 % of control | dose: 200.0 mg/kg/injection, schedule: Q01DX009 (ip), vehicle: other 100 % of control | dose: 400.0 mg/kg/injection, schedule: Q01DX009 (ip), vehicle: other 100 % of control

S=c1[nH]ccs1
inactive: dose: 12.5 mg/kg/injection, schedule: Q01DX009 (ip), vehicle: water 99 % of control | dose: 25.0 mg/kg/injection, schedule: Q01DX009 (ip), vehicle: water 99 % of control | dose: 50.0 mg/kg/injection, schedule: Q01DX009 (ip), vehicle: water 95 % of control

C1CC2CC1C13OC1C1(CC1)C1OC213 (centres undefined)
inactive: dose: 100.0 mg/kg/injection, schedule: Q01DX001 (ip), vehicle: Klucel (hydroxypropylcellulose) (HPC) 106 % of control and 123 % of control | dose: 200.0 mg/kg/injection, schedule: Q01DX001 (ip), vehicle: Klucel (hydroxypropylcellulose) (HPC) 109 % of control
active: dose: 400.0 mg/kg/injection, schedule: Q01DX001 (ip), vehicle: Klucel (hydroxypropylcellulose) (HPC) 157 % of control

C[N+](C)=c1ccc2nc3c(cc(NCCCNc4cc5oc6cc(=[N+](C)C)ccc-6nc5c5ccccc45)c4ccccc43)oc-2c1
inactive: [7] 106 % of control | [8] 113 % of control | [9] 103 % of control

COc1ccc(Cc2coc3ccccc3c2=O)cc1OC
inactive: [7] 102 % of control | [8] 97 % of control | [9] 97 % of control

COc1ccc(O)cc1
inactive: dose: 12.5 mg/kg/injection, schedule: Q01DX005 (ip), vehicle: saline with Tween-80 104 % of control | dose: 25.0 mg/kg/injection, schedule: Q01DX005 (ip), vehicle: saline with Tween-80 99 % of control | [1] 99 % of control | [3] 101 % of control | [2] 99 % of control | dose: 200.0 mg/kg/injection, schedule: Q01DX001 (ip), vehicle: saline with Tween-80 102 % of control

O=CNC(CSSCC(NC=O)C(=O)O)C(=O)O (centres undefined)
inactive: dose: 50.0 mg/kg/injection, schedule: Q01DX005 (ip), vehicle: Klucel (hydroxypropylcellulose) (HPC) 101 % of control | dose: 100.0 mg/kg/injection, schedule: Q01DX005 (ip), vehicle: Klucel (hydroxypropylcellulose) (HPC) 101 % of control | dose: 100.0 mg/kg/injection, schedule: Q04DX003 (ip), vehicle: saline with Tween-80 113 % of control | dose: 200.0 mg/kg/injection, schedule: Q01DX005 (ip), vehicle: Klucel (hydroxypropylcellulose) (HPC) 95 % of control | dose: 200.0 mg/kg/injection, schedule: Q04DX003 (ip), vehicle: saline with Tween-80 90 % of control | dose: 400.0 mg/kg/injection, schedule: Q04DX003 (ip), vehicle: saline with Tween-80 90 % of control

Source: PubChem BioAssay AID330 (DTP/NCI, 2004)
